The values that follow come from patent publication US8598085B2, “2-(2-fluoro-substituted phenyl)-6-amino-5-chloro-4-pyrimidinecarboxylates and their use as herbicides” (Dow AgroSciences LLC, priority 2007, dated 2013).

The term melting point denotes the temperature of the solid-liquid transition. As usually defined, the inhibition is how much of the control response was suppressed.

In data set [1] the test system is ABUTH—Velvetleaf (Abutilon theophrasti). The data set is described as follows: General postemergence herbicidal activity, velvetleaf. It counts as in vivo. Particulars: post-emergence, 336 h, post-emergent, rate 140 g ai/ha, visual score after 14 days (0 no injury, 100 complete kill), read-out: % Growth Reduction ABUTH. Here is the method: (§1) Seeds or nutlets of the desired test plant species were planted in Sun Gro MetroMix® 306 planting mixture, which typically has a pH of 6.0 to 6.8 and an organic matter content of about 30 percent, in plastic pots with a surface area of 64 square centimeters. When required to ensure good germination and healthy plants, a fungicide treatment and/or other chemical or physical treatment was applied. The plants were grown for 7-21 days in a greenhouse with an approximate 15 hour photoperiod which was maintained at about 23-29° C. during the day and 22-28° C. during the night. Nutrients and water were added on a regular basis and supplemental lighting was provided with overhead metal halide 1000-Watt lamps as necessary. The plants were employed for testing when they reached the first or second true leaf stage.
(§2) A weighed amount, determined by the highest rate to be tested, of each test compound was placed in a 25 mL glass vial and was dissolved in 4 mL of a 97:3 v/v (volume/volume) mixture of acetone and dimethyl sulfoxide (DMSO) to obtain concentrated stock solutions. […] The concentrated stock solutions obtained were diluted with 20 mL of an aqueous mixture containing acetone, water, isopropyl alcohol, DMSO, Atplus 411F crop oil concentrate, and Triton X-155 surfactant in a 48.5:39:10:1.5:1.0:0.02 v/v ratio to obtain spray solutions containing the highest application rates. Additional application rates were obtained by serial dilution of 12 mL of the high rate solution into a solution containing 2 mL of 97:3 v/v (volume/volume) mixture of acetone and DMSO and 10 mL of an aqueous mixture containing acetone, water, isopropyl alcohol, DMSO, Atplus 411F crop oil concentrate, and Triton X-155 surfactant in a 48.5:39:10:1.5:1.0:0.02 v/v ratio to obtain ½X, ¼X, ⅛X and 1/16X rates of the high rate. Compound requirements are based upon a 12 mL application volume at a rate of 187 L/ha. Formulated compounds were applied to the plant material with an overhead Mandel track sprayer equipped with 8002E nozzles calibrated to deliver 187 L/ha over an application area of 0.503 square meters at a spray height of 18 inches […] above the average plant canopy height. Control plants were sprayed in the same manner with the solvent blank.
(§3) The treated plants and control plants were placed in a greenhouse as described above and watered by sub-irrigation to prevent wash-off of the test compounds. After 14 days, the condition of the test plants as compared with that of the untreated plants was determined visually and scored on a scale of 0 to 100 percent where 0 corresponds to no injury and 100 corresponds to complete kill.

Data set [2] has as its system POLCO—Wild buckwheat (Polygonum convolvulus). The data set is described as follows: General postemergence herbicidal activity, wild buckwheat. It counts as in vivo. As to conditions: Fallopia convolvulus, post-emergence, 336 h; post-emergent, rate 140 g ai/ha, visual score after 14 days (0 no injury, 100 complete kill); read-out: % Growth Reduction POLCO. Here is the method: as §1, §2, §3

For data set [3], the system named is CIRAR—Canada thistle (Cirsium arvense). As to the kind of experiment: General postemergence herbicidal activity, Canada thistle. It counts as in vivo. Particulars: post-emergence, 336 h, post-emergent, rate 140 g ai/ha, visual score after 14 days (0 no injury, 100 complete kill), read-out: % Growth Reduction CIRAR. Here is the method: as §1, §2, §3
Data set [4] has as its system ECHCG—Barnyardgrass (Echinochloa crus-galli). As to the kind of experiment: General postemergence herbicidal activity, barnyardgrass. Particulars: post-emergence, 336 h, post-emergent, rate 140 g ai/ha, visual score after 14 days (0 no injury, 100 complete kill), read-out: % Growth Reduction ECHCG. It counts as in vivo. Here is the method:
as §1, §2, §3

The subject of data set [5] is ZEAMX—Corn (Zea mays). As to the kind of experiment: General preemergence herbicidal activity, corn. In kind it is in vivo. As to conditions: pre-emergent, rate 140 g ai/ha, visual score after 20-22 days (0 no injury, 100 complete kill or no emergence), read-out: % Growth Inhibition ZEAMX. From the text: (§4) Seeds of the desired test plant species were planted in a soil matrix prepared by mixing a loam soil (43 percent silt, 19 percent clay, and 38 percent sand, with a pH of about 8.1 and an organic matter content of about 1.5 percent) and sand in a 70 to 30 ratio. The soil matrix was contained in plastic pots with a surface area of 113 square centimeters. When required to ensure good germination and healthy plants, a fungicide treatment and/or other chemical or physical treatment was applied. A weighed amount, determined by the highest rate to be tested, of each test compound was placed in a 25 mL glass vial and was dissolved in 6 mL of a 97:3 v/v (volume/volume) mixture of acetone and DMSO to obtain concentrated stock solutions. […] The stock solutions obtained were diluted with 18 mL of a 0.1% v/v aqueous solution of Tween® 20 surfactant to obtain spray solutions containing the highest application rate. Additional application rates were obtained by serial dilution of 12 mL of the high rate solution into a solution containing 3 mL of 97:3 v/v mixture of acetone and DMSO and 9 mL of the 0.1% v/v aqueous solution of Tween® 20 surfactant to obtain 1⁄2X, 1⁄4X, 1⁄8X and 1/16X rates of the high rate. Compound requirements are based upon a 12 mL application volume at a rate of 187 L/ha. Formulated compounds were applied to the plant material with an overhead Mandel track sprayer equipped with […] nozzles calibrated to deliver 187 L/ha over an application area of 0.503 square meters at a spray height of 18 inches (43 cm) above the soil surface. Control plants were sprayed in the same manner with the solvent blank. The treated pots and control pots were placed in a greenhouse maintained with an approximate 15 hour photoperiod and temperatures of about 23-29° C. during the day and 22-28° C. during the night. Nutrients and water were added on a regular basis and supplemental lighting was provided with overhead metal halide 1000-Watt lamps as necessary. The water was added by top-irrigation. After 20-22 days, the condition of the test plants that germinated and grew as compared with that of the untreated plants that emerged and grew was determined visually and scored on a scale of 0 to 100 percent where 0 corresponds to no injury and 100 corresponds to complete kill or no emergence.

Data set [6] concerns CHEAL—Common lambsquarters (Chenopodium album). As to the kind of experiment: General preemergence herbicidal activity, common lambsquarters. In kind it is in vivo. As to conditions: pre-emergent, rate 140 g ai/ha, visual score after 20-22 days (0 no injury, 100 complete kill or no emergence), read-out: % Growth Inhibition CHEAL.
Text: as §4

The subject of data set [7] is ABUTH—Velvetleaf (Abutilon theophrasti). The data set is described as follows: General preemergence herbicidal activity, velvetleaf. As to conditions: pre-emergent, rate 140 g ai/ha, visual score after 20-22 days (0 no injury, 100 complete kill or no emergence), read-out: % Growth Inhibition ABUTH. In kind it is in vivo.
Text: as §4

In data set [8] the test system is SORVU—Common sorghum (Sorghum vulgare). The data set is described as follows: General preemergence herbicidal activity, common sorghum. In kind it is in vivo. Particulars: pre-emergent, rate 140 g ai/ha, visual score after 20-22 days (0 no injury, 100 complete kill or no emergence), read-out: % Growth Inhibition SORVU.
Text: as §4

Regarding `COC(=O)c1nc(-c2ccc(Cl)cc2F)nc(N)c1Cl` [Compound 1, 6-Amino-5-chloro-2-(4-chloro-2-fluorophenyl)pyrimidine-4-carboxylic acid methyl ester], the melting point was in the range of 194 to 196 °C. Moreover, the pest or weed control at 140 g/ha in data set [1] worked out at 100%. Besides, the pest or weed control at 140 g/ha in [2] was 95%. The pest or weed control at 140 g/ha in data set [3] was 100%. In addition, the pest or weed control at 140 g/ha in data set [4] was 90%.

As for `COC(=O)c1nc(-c2ccc(Cl)c(F)c2F)nc(N)c1Cl` [Compound 2, 6-Amino-5-chloro-2-(4-chloro-2,3-difluorophenyl)pyrimidine-4-carboxylic acid methyl ester], the melting point lay in the range of 187 to 189 °C. Moreover, the pest or weed control at 140 g/ha in data set [1] worked out at 100%. Besides, the pest or weed control at 140 g/ha in [2] is 100%. Moreover, the pest or weed control at 140 g/ha in [3] was 100%. In data set [4], the pest or weed control at 140 g/ha was 95%.

As to `COC(=O)c1nc(-c2ccc(C)c(F)c2F)nc(N)c1Cl` [Compound 4, 6-Amino-5-chloro-2-(2,3-difluoro-4-methylphenyl)pyrimidine-4-carboxylic acid methyl ester], the pest or weed control at 140 g/ha worked out at 99% in data set [1], 80% in data set [2], 60% in data set [3] and 90% in [4].

In the case of `COC(=O)c1nc(-c2ccc(C(F)(F)F)cc2F)nc(N)c1Cl` [Compound 5, 6-Amino-5-chloro-2-(2-fluoro-4-trifluoromethylphenyl)pyrimidine-4-carboxylic acid methyl ester], the pest or weed control at 140 g/ha is 70% in data set [1], 80% in data set [2], 85% in data set [3] and 0% in data set [4].

Consider `COC(=O)c1nc(-c2ccc(C(F)(F)F)c(F)c2F)nc(N)c1Cl` [Compound 6, 6-Amino-5-chloro-2-(2,3-difluoro-4-trifluoromethylphenyl)pyrimidine-4-carboxylic acid methyl ester], for which the pest or weed control at 140 g/ha in [1] amounted to 90%; in data set [2], 95%; in [3], 80%; in data set [4] it was 25%.

Regarding `COC(=O)c1nc(-c2cc(F)c(C)cc2F)nc(N)c1Cl` [Compound 8, 6-Amino-5-chloro-2-(2,5-difluoro-4-methylphenyl)pyrimidine-4-carboxylic acid methyl ester], the pest or weed control at 140 g/ha in data set [1] was 95%; in data set [2], 60%; in [3] it was 45%; in data set [4], 0%.

On to `COC(=O)c1nc(-c2ccc(C(F)F)cc2F)nc(N)c1Cl` [Compound 9, 6-Amino-5-chloro-2-(4-difluoromethyl-2-fluorophenyl)pyrimidine-4-carboxylic acid methyl ester], for which the pest or weed control at 140 g/ha was 45% in data set [1], 35% in [2], 40% in data set [3] and 0% in [4].

For the compound `COC(=O)c1nc(-c2cc(Cl)c(Cl)cc2F)nc(N)c1Cl` [Compound 10, 6-Amino-5-chloro-2-(4,5-dichloro-2-fluorophenyl)pyrimidine-4-carboxylic acid methyl ester], the figures for the pest or weed control at 140 g/ha in data set [1], in [2] and in data set [3] were 90%, 100% and 95%, respectively.

For `Cc1ccc(-c2nc(N)c(Cl)c(C(=O)O)n2)c(F)c1` [Compound 13, 6-Amino-5-chloro-2-(2-fluoro-4-methylphenyl)pyrimidine-4-carboxylic acid], the inhibition at 140 g/ha in data set [5] was determined as 10%; in [6], 95%; in data set [7], 95%; in data set [8], 50%.

For `Nc1nc(-c2cc(Cl)c(Cl)cc2F)nc(C(=O)O)c1Cl` [Compound 17, 6-Amino-5-chloro-2-(4,5-dichloro-2-fluorophenyl)pyrimidine-4-carboxylic acid], the pest or weed control at 140 g/ha in [1] amounted to 85%; in data set [2], 95%; in data set [3], 90%.

As to `Cc1cc(F)c(-c2nc(N)c(Cl)c(C(=O)O)n2)cc1F` [Compound 18, 6-Amino-5-chloro-2-(2,5-difluoro-4-methylphenyl)pyrimidine-4-carboxylic acid], the pest or weed control at 140 g/ha stood at 100% in [1], 40% in data set [2], 100% in data set [3] and 75% in [4].

As for `CCOC(=O)c1nc(-c2ccc(Cl)cc2F)nc(N)c1Cl` [Compound 19, 6-Amino-5-chloro-2-(4-chloro-2-fluorophenyl)pyrimidine-4-carboxylic acid ethyl ester], the melting point was in the range of 131 to 132 °C. The pest or weed control at 140 g/ha in data set [1] was found to be 99%. The pest or weed control at 140 g/ha in data set [2] came out at 100%. Besides, the pest or weed control at 140 g/ha in data set [3] stood at 95%. Moreover, the pest or weed control at 140 g/ha in data set [4] worked out at 80%.

As for `COC(=O)c1nc(-c2cc(F)c(Cl)cc2F)nc(N)c1Cl` [Compound 20, 6-Amino-5-chloro-2-(4-chloro-2,5-difluorophenyl)-pyrimidine-4-carboxylic acid methyl ester], the pest or weed control at 140 g/ha amounted to 99% in data set [1], 100% in data set [2], 95% in data set [3] and 95% in data set [4].
